Reference: patent US20240246905A1 (University of Leicester, priority 2021, published 2024)
Converted amounts (≈) assume the structure as drawn.

Assays:
[1] = test system: various Staphylococcus aureus strains; experiment: Disc diffusion, Staphylococcus aureus strain study; type: cell-based; details: Staphylococcus aureus, 500 μg/mL
From the text: At this point in the study it was decided to perform a disc diffusion assay study on 50 S. aureus strains. […] Moreover, by employing a range of mutant strains of S. aureus with specific gene-deletions, it was believed that if particular strains were resistant to the lead compounds, it could provide insights on the likely protein target of the lead antibiotics. However, all six of the compounds utilized in this study were able to inhibit growth of all 50 strains of S. aureus assayed at the chosen concentration of 500 μg/mL concentration (Table 5).
E. coli DH5α, P. aeruginosa PA01 and the 53 S. aureus strains were recovered from frozen (−80° C.) glycerol (15% v/v) stocks on Lysogeny agar (LA)—Gram negative and trypticase soy agar (TSA)—plates at 37° C. for 24 hours. Single colonies were placed in either 3 mL Lysogeny broth (LB)—Gram negative or trypticase soy broth (TSB)—Gram positive and incubated at 37° C., 250 rpm for 18 hours.
The antibiotic activity was determined using a Kirby-Bauer method according to Clinical Standard Laboratory Institute (CSLI) Guidelines (2017). Briefly, 180 μL of a 1 in 200 dilution (in LB or TSB) of overnight cultures of selected Gram negative and Gram positive bacteria were applied to an agar plate containing the solid growth medium, Mueller-Hinton agar (MHA). Sterile discs, inoculated with 50 μL of antibiotic, were first added to the agar plate before the plates were incubated for 24 hours at 37° C. Following incubation, the zone of inhibition (if it existed) was recorded.

[2] = test system: C. tropicalis ATCC 450; experiment: Anti-fungal MIC (CO-ADD); type: cell-based; details: Candida tropicalis, ATCC450, read-out: MIC
Summary of the method: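 First, yeasts are cultured on YPD agar for 3 days at 30 °C. Next, five colonies give a suspension at 1×10^6 to 5×10^6 CFU/mL judged by OD530. Then covered plates sit at 35 °C for 36 hours, unshaken, before absorbance reading.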

[3] = test system: MRSA 252; experiment: Disc diffusion (Kirby-Bauer), zone of inhibition; type: cell-based, Staphylococcus aureus; details: Staphylococcus aureus, 500 μg/mL, '/' = no zone, read-out: Zone of inhibition
Summary of the method: (§1)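 Kirby-Bauer per CLSI 2017: 1 in 200 dilutions of overnight cultures (LB for Gram-negatives, TSB for Gram-positives) spread on Mueller-Hinton agar. Discs loaded with 50 μL antibiotic were added and plates incubated 24 h at 37 °C. Zone of inhibition recorded.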

[4] = test system: MSSA 476; experiment: Disc diffusion (Kirby-Bauer), zone of inhibition; type: cell-based, Staphylococcus aureus; details: Staphylococcus aureus, 500 μg/mL, '/' = no zone, read-out: Zone of inhibition
Summary of the method: as §1

[5] = test system: HEK293 cells; experiment: Cytotoxicity assay, resazurin (CO-ADD)
Summary of the method: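 HEK293 cells in DMEM with 10% FBS were exposed to compounds at a single concentration of 32 μg/mL for 20 h at 37° C, 5% CO2. Viability read by resazurin fluorescence (2.3 μg/mL final, 3 h; F560/590). CC50 from sigmoidal dose-response fitting.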

[6] = test system: MRSA 252; experiment: MIC, broth micro-dilution; type: cell-based, Staphylococcus aureus; details: Staphylococcus aureus, read-out: MIC
Summary of the method: (§2)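 Broth micro-dilution followed CLSI 2017: 1:2 antibiotic dilutions in TSB were inoculated at 5×10^5 CFU/mL. OD was recorded every 12 min over 18 h at 37 °C, and MIC was derived from sigmoidal dose-response fits.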

[7] = test system: MSSA 476; experiment: MIC, broth micro-dilution; type: cell-based, Staphylococcus aureus; details: Staphylococcus aureus, MSSA, read-out: MIC
Summary of the method: as §2

[8] = test system: red blood cells; experiment: Hemolysis assay (CO-ADD); type: cell-based; details: 32 μg/mL highest concentration tested
From the text: A problem often encountered by emerging drugs is hemolysis, also known as drug-induced immune hemolytic anemia.

[9] = test system: Staphylococcus aureus 15981; experiment: Disc diffusion (Kirby-Bauer), zone of inhibition; type: cell-based; details: Staphylococcus aureus 15981; 500 μg/mL; '/' = no zone; read-out: Zone of inhibition
Summary of the method: as §1

[C-]#[N+]C=Cc1ccc(O)c(Br)c1 [Compound 14]
zone of inhibition at 500 µg/mL ([1]; strain ASARM 61): 22 mm | zone of inhibition at 500 µg/mL ([1]; strain ASARM 70): 20 mm | zone of inhibition at 500 µg/mL ([1]; strain ASARM 71): 22 mm | zone of inhibition at 500 µg/mL ([1]; strain ASARM 72): 20 mm | zone of inhibition at 500 µg/mL ([1]; strain ASARM 73): 20 mm | zone of inhibition at 500 µg/mL ([1]; strain ASARM 75): 20 mm | zone of inhibition at 500 µg/mL ([1]; strain ASARM 76): 22 mm | zone of inhibition at 500 µg/mL ([1]; strain ASARM 77): 22 mm | zone of inhibition at 500 µg/mL ([1]; strain ASARM 79): 24 mm | zone of inhibition at 500 µg/mL ([1]; strain ASARM 80): 25 mm | zone of inhibition at 500 µg/mL ([1]; strain EOE 3): 20 mm | zone of inhibition at 500 µg/mL ([1]; strain EOE 23): 22 mm | zone of inhibition at 500 µg/mL ([1]; strain EOE 30): 22 mm | zone of inhibition at 500 µg/mL ([1]; strain EOE 35): 18 mm | zone of inhibition at 500 µg/mL ([1]; strain EOE 41): 20 mm | zone of inhibition at 500 µg/mL ([1]; strain EOE 42): 18 mm | zone of inhibition at 500 µg/mL ([1]; strain EOE 45): 20 mm | zone of inhibition at 500 µg/mL ([1]; strain EOE 52): 25 mm | zone of inhibition at 500 µg/mL ([1]; strain EOE 54): 19 mm | zone of inhibition at 500 µg/mL ([1]; strain EOE 57): 20 mm | zone of inhibition at 500 µg/mL ([1]; strain S139_7_7): 20 mm | zone of inhibition at 500 µg/mL ([1]; strain S197_1_1): 25 mm | zone of inhibition at 500 µg/mL ([1]; strain S197_1_8): 22 mm | zone of inhibition at 500 µg/mL ([1]; strain S197_1_9): 22 mm | zone of inhibition at 500 µg/mL ([1]; strain S197_1_10): 22 mm | zone of inhibition at 500 µg/mL ([1]; strain S295_1_1): 22 mm | zone of inhibition at 500 µg/mL ([1]; strain S295_1_2): 14 mm | zone of inhibition at 500 µg/mL ([1]; strain S295_1_3): 20 mm | zone of inhibition at 500 µg/mL ([1]; strain S364_5_11): 24 mm | zone of inhibition at 500 µg/mL ([1]; strain S364_5_12): 24 mm | zone of inhibition at 500 µg/mL ([1]; strain Sa_TPS 3026): 16 mm | zone of inhibition at 500 µg/mL ([1]; strain Sa_TPS 3072): 18 mm | zone of inhibition at 500 µg/mL ([1]; strain Sa_TPS 3092): 24 mm | zone of inhibition at 500 µg/mL ([1]; strain Sa_TPS 3097): 18 mm | zone of inhibition at 500 µg/mL ([1]; strain Sa_TPS 3103): 26 mm | zone of inhibition at 500 µg/mL ([1]; strain Sa_TPS 3104): 22 mm | zone of inhibition at 500 µg/mL ([1]; strain Sa_TPS 3106): 20 mm | zone of inhibition at 500 µg/mL ([1]; strain Sa_TPS 3118): 18 mm | zone of inhibition at 500 µg/mL ([1]; strain Sa_TPS 3133): 18 mm | zone of inhibition at 500 µg/mL ([1]; strain Sa_TPS 3134): 18 mm | zone of inhibition at 500 µg/mL ([1]; strain USFL 008): 17 mm | zone of inhibition at 500 µg/mL ([1]; strain USFL 009): 16 mm | zone of inhibition at 500 µg/mL ([1]; strain USFL 012): 20 mm | zone of inhibition at 500 µg/mL ([1]; strain USFL 016): 18 mm | zone of inhibition at 500 µg/mL ([1]; strain USFL 018): 18 mm | zone of inhibition at 500 µg/mL ([1]; strain USFL 020): 16 mm | zone of inhibition at 500 µg/mL ([1]; strain USFL 021): 18 mm | zone of inhibition at 500 µg/mL ([1]; strain USFL 028): 18 mm | zone of inhibition at 500 µg/mL ([1]; strain USFL 035): 19 mm | zone of inhibition at 500 µg/mL ([1]; strain USFL 054): 18 mm | MIC [2]: > 32 µg/mL | zone of inhibition at 500 µg/mL [3]: 24 mm | zone of inhibition at 500 µg/mL [4]: 24 mm | Concentration toxic to HEK 293 cells ([5]; HEK 293): >32000 ng/mL | toxicity towards the HEK293 cell line (in words) ([5]; set concentration of 32 μg/mL): no toxicity | MIC [6]: 44 µg/mL (≈ 196 µM) | MIC [7]: 242 µg/mL (≈ 1080 µM) | Hemolytic activity (HC10) [8]: >32 µg/mL | zone of inhibition at 500 µg/mL [9]: 28 mm
